Test system: HIV-1 infected PBMCs
Assay: p24 antigen production by HIV-1 infected PBMCs
Format: cell-based
Settings: identical culture conditions, various doses
Protocol: The efficacy of magnetic nanoparticle-AZTTP was evaluated in an in vitro model system using HIV infected peripheral blood mononuclear cells (PBMCs). […] Therefore, binding of AZTTP to magnetic nanoparticles have no effect on its biological activity.

For `Cc1cn([C@H]2C[C@H](N=[N+]=[N-])[C@@H](COP(=O)(O)OP(=O)(O)OP(=O)(O)O)O2)c(=O)[nH]c1=O` [free AZTTP, 3′-Azido-3′-Deoxythymidine-5′-triphosphate], the “anti-HIV activity of free AZTTP (positive control) and MP-AZTTP compared” value was “similar”.
